Assay results published in patent US8846914B2, “Compositions to effect neuronal growth” (Neuralstem, Inc., priority 2003, dated 2014).

Key:
[1] = test system: human hippocampal stem cells; assay: Neuronal identification of mitotic cells (BrdU / TuJ1 co-staining); assay type: cell-based; settings: BrdU during last forty-eight hours of two-week treatment; FIG. 13
Excerpt: FIG. 13 is a bar graph illustrating an example of neuronal identification of the mitotic cells in response to the compound treatment. Mitotic cells were labeled with BrdU during the last forty-eight hours of the two-week treatment with the test compounds. BrdU alone and BrdU together with TuJ1 as co-stained cells were quantified. Results from NSI-106 and LIF treatment are shown as an example. […] The bars represent the mean±SD from each of six wells.
In FIG. 13, mitotic cells are labeled with BrdU during the last forty-eight hours of a two-week treatment with the test compounds. BrdU alone and BrdU together with TuJ1 as co-stained cells are quantified.
As described in pending U.S. patent application Ser. No. 10/728,652, leukemia inhibitory factor (LIF), a cytokine growth factor, was selected from among several known neurotrophic factors as a positive control against which tested compounds can be compared. […] This effect is both consistent with the neural stem cell system in which the cells respond appropriately to the positive control by enhanced differentiation and/or mitosis, and achieves the objective of the assay method in which such cellular responses can be measured reproducibly and quantifiably.
Results from NSI-106 and the positive control, LIF treatment are shown as an example. […] The bars represent the mean±SD from each of six wells.

[2] = test system: Differentiating hippocampal stem cells; assay: Committed neuronal progenitors (Ki-67 / TuJ1 co-staining); assay type: cell-based, human; settings: treated for 10 days; FIG. 14
Experimental: FIG. 14 is a micrograph illustrating an example of production of committed neuronal progenitors by NSI-106. Differentiating hippocampal stem cells were treated with NSI-106 for 10 days, fixed, and stained for Ki-67 protein as well as TuJ1. Ki-67 protein is an endogenous marker of mitosis.
FIG. 14 illustrates committed neuronal progenitor production by NSI-106. Differentiating hippocampal stem cells are treated with NSI-106 for 10 days, fixed, and stained for Ki-67 protein to detect dividing cells as well as TuJ1 to detect cells that have differentiated into neurons, Ki-67 protein is an endogenous marker of mitosis.

[3] = test system: dentate gyrus of C57B16 adult mice; assay: In vivo neurogenesis, BrdU immunostaining of dentate gyrus; set-up: species or system mouse; settings: for Neurogenesis in the dentate gyrus (BrdU-immunopositive cells): 10 mg/kg orally for ten days, healthy adult mice
Experimental: FIG. 9A and FIG. 9B are micrographs illustrating an example of BrdU immunostaining of a mouse dentate gyrus having been administered a vehicle and a compound. Mice were treated daily with various test compounds at 10 mg/kg p.o. (FIG. 9B) or vehicle alone (FIG. 9A) for ten days. The animals were injected daily with BrdU for the first seven days. At the end of the ten-day period, the animals were perfused and their brains sliced for immunostaining with anti-BrdU antibody and analysis.
FIGS. 10A and 10B are bar graphs illustrating an example of quantification of BrdU-immunopositive cells in the in vivo neurogenesis testing the compounds. Mice were treated with the various test compounds for in vivo neurogenesis in two cohorts. The cells from one dentate gyrus of each mouse in each test group were counted and average BrdU values immunoreactivity are shown. The symbols, * and ** indicate immunoreactivity increases of statistical significant the indicated p values. Seven compounds are especially effective in increasing the neurogenesis in the dentate gyrus of the healthy adult mice, the area known to have continued adult neurogenesis.
In one embodiment, fifteen of the compounds from Table I above are administered orally to mice at 10 mg/kg for ten days and co-administered bromodeoxyuridine (BrdU) by intraperitoneal injection for the first […] days. […] For example, in FIGS. 9A and 9B, BrdU immunostainings of hippocampal slices from two mice treated with either vehicle alone or NSI-158 are illustrated. In FIGS. 9A and 9B, the mice are treated daily for ten days with vehicle alone (FIG. 9A) or orally with various test compounds at 10 mg/kg (FIG. 9B). The animals are injected daily with BrdU for the first seven days. […]
Mice were treated with the various test compounds for in vivo neurogenesis in two cohorts as described above. The cells from one dentate gyrus of each mouse in each test group were counted and average BrdU immunoreactivity values are calculated. […]

[4] = test system: human hippocampal stem cells differentiated for a period of 3-4 weeks; assay: 2° Assay Cell#/Apop (secondary neuroprotection/apoptosis assay); assay type: cell-based
Excerpt: Other potential AD therapeutics progressing in clinical trials, target neurodegeneration in the hopes of reducing the neuronal loss and cognitive decline. Apoptotic death involving caspase pathways and DNA fragmentation has been measured in in vitro and animal models of AD and in Alzheimer's diseased brain tissue. The extent of apoptosis leading to neuronal loss is of continual debate with most agreeing it has some effect, but that other neuronal death pathways definitely play a role (see Behl, 2000; Broe et al., 2001, Roth, 2001). […]
A number of neurogenic agents inhibit neuronal loss, caspase-3 activity and/or nuclear fragmentation compared to staurosporine vehicle control. These NSI small molecule agents are all effective at in vitro neurogenesis as determined by methods described. […] Instrumentation such as a Molecular Devices fluorescent plate reader or a […] Array Scan II instrument and the like may be used to measure the degeneration and apoptosis.
Another assay used to determine the ability of a compound to provide neuroprotection is an apoptosis assay. Apoptosis is measured using the activity of an early matter of the programmed cell death pathway, caspase-3. […] Caspase-3 activity is expressed as μM of cleaved substrate per hour. […]

`CCCCNc1c(C2CCN(C(=O)CN(CC(C)C)S(C)(=O)=O)CC2)nc2cnccn12` [NSI-106] was tested, and the “BrdU and TuJ1 co-stained mitotic cells” value [1] was “produces mostly co-stained cells” and the “Ki-67 and TuJ1 co-stained cells” value [2] was “significant number of cells are co-stained”.

For `NC(=O)C1CCCN1C(=O)c1cccnc1NCC1CCCCC1` (stereo not shown) [NSI-158], the “Neurogenesis in the dentate gyrus (BrdU-immunopositive cells)” value [3] was “especially effective at promoting neurogenesis” and the “Dividing cells in the dentate gyrus versus vehicle (BrdU immunostaining)” value ([3]; 10 mg/kg p.o. daily for ten days, FIG. 9A/9B) was “far greater dividing cells”.

With `O=C(NCc1nc2ccccn2c1NCC1CCCO1)Oc1ccccc1` (stereo not shown) [NSI-182] the “2° Assay Apop” value [4] was 100 ± 27 and the “2° Assay Cell#” value [4] was 78 ± 34/.

For `CC(C)CCNc1ncccc1C(=O)N1CCN(Cc2ccccc2)CC1` [NSI-189], the “Neurogenesis in the dentate gyrus (BrdU-immunopositive cells)” value [3] was “especially effective at promoting neurogenesis”.
